# Assay results from US20250011790A1, “COMBINED TARGETING OF STAT3 AND ULKI TO TREAT GLIOBLASTOMA” (Vanderbilt University, priority 2021, published 2025).
# Columns and labels:
# MT330 cells [1] = experiment: Western blot of LC3-II and p62 (autophagy flux) in MT330 cells; format: cell-based
# Experimental: FIGS. 3A to 3H show STAT3-KO activates autophagy through mTOR-independent but Prom1-dependent signalling pathways in MT330 cells. […] Cell lysates were analysed for LC3-I/II, p62 and CathepsinD.
# (§1) FIGS. 3B and 3C show quantification of LC3-II/Actin ratio (FIG. 3B) and p62/Actin ratio (FIG. 3C). […] Cell lysates were immunoblotted with the indicated antibodies and beta actin was used as an internal loading control. […] Cell lysates were analyzed by Western blotting using antibodies specific for STAT3, Prom1 and LC3-I/II.
# (§2) Total cell lysates were immunoblotted with indicated antibodies with p-Actin serving as a loading control. FIGS. 6B to 6E show quantification of the ratio of phospho- and total-ATG14 (FIG. 6B); phospho- and total-Beclin1 (FIG. 6C); phospho- and total-ULK1 (FIG. 6D); and LC3-II and Actin (FIG. 6E).
# (§3) ULK1 knockdown was verified by Western blotting with ULK1 and phospho-ULK1, and cell lysates were analysed for LC3, cleaved caspase-3 with p-Actin as a loading control. FIGS. 7B to 7D show quantification of the ratio of total-ULK1 and Actin (FIG. 7B); LC3-II and Actin (FIG. 7C); active caspase-3 and Actin (FIG. 7D).
# (§4) Cell lysates were prepared using mammalian protein extraction buffer (Cell Signaling Technology) and a protease inhibitor cocktail followed by SDS-PAGE. Proteins were transferred to Immobilon-P membranes (Millipore Bedford) and probed with primary antibodies overnight at 4° C. in TBS buffer containing 0.1% Tween-20 and 5% nonfat dry milk (Bio-Rad). Membranes were subsequently incubated with horseradish peroxidase-conjugated secondary antibodies at room temperature for 1 h, and the immunocomplexes were visualized by the ECL detection system (Perkin Elmer) quantified on the Azure Biosystems C500. Membranes were stripped and re-probed for actin or GAPDH as loading controls. Representative Western blots from three experiments are shown. Densitometric analysis of all Western blots was performed using Image J software.
# AMPKα = experiment: Western blot of p-AMPKα T172 in MT330 cells; format: cell-based; conditions: Baf 100 nM, 3 h
# Experimental: FIGS. 1A to 1H show STAT3 deletion activates autophagy through AMPKα-ULK1-TSC2 signaling pathways in MT330 cells. […] Untreated (UT) cells served as controls. Total cell lysates were prepared and immunoblotted with indicated antibodies. […] Blots were stripped and probed for total-AMPKα. […] Blots were stripped and probed for total-ULK1. […] Blots were stripped and probed with total-TSC2 antibody.
# as §4
# MT330 cells [2] = experiment: Immunolocalization of LC3 and p62 in MT330 cells; format: cell-based
# Experimental: EV MT330 cells, STAT3-KO, STAT3-KO cells rescued with WT-STAT3, were grown on chamber slides, and treated with or without 1 μM Baf for 48 h. Cells were fixed and immunostained for LC3, p62, and counterstained with DAPI, and analysed by confocal microscopy. Scale bar […].
# Cells were cultured in chamber slides (Millipore) to ˜70% confluence and washed with PBS. Cells were fixed in 4% paraformaldehyde and methanol, and permeabilized with 1% Triton X-100. After blocking with 5% goat serum, cells were incubated with anti-rabbit LC3 and anti-mouse p62 antibodies and subsequently stained with Alexa Fluor 488 (goat anti-rabbit) and Alexa Fluor 633 (goat anti-mouse) secondary antibodies, as described previously. 24 DNA was counterstained with Vectashield mounting media with DAPI (Vectra Laboratories). Images were captured on a Zeiss LSM700 laser scanning confocal microscope.
# ULK1 = molecular target: T1, ULK1 (Homo sapiens, UniProt O75385); experiment: Western blot of ULK1 signaling (p-ATG14, p-Beclin1, p-ULK1) in MT330 cells; format: cell-based; conditions: Baf 100 nM, 3 h
# T1 sequence (O75385 1-1050): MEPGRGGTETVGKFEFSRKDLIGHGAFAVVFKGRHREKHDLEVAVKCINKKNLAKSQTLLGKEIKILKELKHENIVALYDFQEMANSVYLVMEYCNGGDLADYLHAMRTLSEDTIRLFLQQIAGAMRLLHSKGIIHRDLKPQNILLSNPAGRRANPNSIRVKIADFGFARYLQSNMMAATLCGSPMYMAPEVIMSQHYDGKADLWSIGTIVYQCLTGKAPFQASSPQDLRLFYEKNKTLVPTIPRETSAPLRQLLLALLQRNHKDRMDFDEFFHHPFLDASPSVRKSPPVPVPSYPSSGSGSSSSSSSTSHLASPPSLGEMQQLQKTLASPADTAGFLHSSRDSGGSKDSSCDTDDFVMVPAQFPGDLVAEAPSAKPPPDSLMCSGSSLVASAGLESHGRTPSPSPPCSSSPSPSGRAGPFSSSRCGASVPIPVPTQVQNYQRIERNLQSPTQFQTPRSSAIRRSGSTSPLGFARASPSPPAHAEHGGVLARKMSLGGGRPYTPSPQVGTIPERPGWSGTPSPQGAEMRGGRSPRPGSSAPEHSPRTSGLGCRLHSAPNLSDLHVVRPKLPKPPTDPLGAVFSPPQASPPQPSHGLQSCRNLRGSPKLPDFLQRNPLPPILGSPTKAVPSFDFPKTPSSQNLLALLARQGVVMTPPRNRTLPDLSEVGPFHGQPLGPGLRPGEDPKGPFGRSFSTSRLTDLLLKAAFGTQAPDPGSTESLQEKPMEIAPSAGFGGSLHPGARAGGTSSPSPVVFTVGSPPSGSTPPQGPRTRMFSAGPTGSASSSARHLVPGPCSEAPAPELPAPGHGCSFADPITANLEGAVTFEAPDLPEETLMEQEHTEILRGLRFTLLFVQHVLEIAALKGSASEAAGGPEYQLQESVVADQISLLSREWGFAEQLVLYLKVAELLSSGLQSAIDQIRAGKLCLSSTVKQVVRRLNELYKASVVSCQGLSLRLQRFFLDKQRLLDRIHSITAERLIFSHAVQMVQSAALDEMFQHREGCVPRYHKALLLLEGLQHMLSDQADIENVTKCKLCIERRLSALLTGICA
# mTORC1 = experiment: Western blot of mTOR S2448 and S6 phosphorylation in MT330 cells; format: cell-based
# Experimental: as §1, §2, §4
# AMPK = conditions: cited from earlier work
# mTORC1 and AMPK = conditions: cited from earlier work
# autophagy = conditions: cited from earlier work
# MT330 cells [3] = experiment: Caspase-3 cleavage Western blot (apoptosis) in MT330 cells; format: cell-based; conditions: MRT68921 20 μM, 5 h
# Experimental: as §2, §3
# as §4, with “Densitometric analysis of all Western blots was performed using Image J software.” left out
# MT330 cells [4] = experiment: Cell death ELISA (DNA fragmentation) in MT330 cells; format: cell-based; conditions: STAT3-KO and mutant expressing cells vs control cells, MRT68921 20 μM, 5 h
# Experimental: as §2, §3
# The quantitative DNA fragmentation assay was performed using a cell death ELISA kit as described earlier (Bhattacharya S, et al. Apoptosis. 2014 19(3):451-466). […] Cells were lysed, and an aliquot of the nuclei-free supernatant was placed in streptavidin-coated plates and incubated with anti-histone biotin and anti-DNA peroxidase-conjugated antibodies for 2 h at room temperature. After incubation, the samples were aspirated, and the wells were washed 3 times with incubation buffer. […] The absorbance was read at 405 nm using the SpectraMax iD3 microplate reader (Molecular Devices). Results were expressed as absorbance at 405 nm/mg protein/min.
# [5] = system: hepatocellular carcinoma (HCC) cells; conditions: cited from earlier work
# [6] = EV MT330 cells, Everolimus (RAD001) 10 μM, 3 h
smiles,measurement,setting,value
"CO/C1=C\C(C)=C\[C@@H](C)[C@@H](O)[C@@H](C)C/C(C)=C/C=C/[C@H](OC)[C@@H]([C@@H](C)[C@@H](O)[C@H](C)[C@@]2(O)C[C@@H](O)[C@H](C)[C@@H](C(C)C)O2)OC1=O [Bafilomycin, Bafilomycin A1]",LC3-II levels,"MT330 cells [1]; MT330 cells expressing the S727A mutant, Baf 100 nM, 3 h",did not significantly change
same,p62 accumulation,"MT330 cells [1]; STAT3-KO MT330 cells, Baf 100 nM, 3 h",partially increased
same,LC3-II levels,"MT330 cells [1]; STAT3-deleted MT330 cells, Baf 100 nM, 3 h",further increased
same,LC3-II levels,"MT330 cells [1]; control MT330 EV cells, Baf 100 nM, 3 h",no effect
same,AMPKα phosphorylation,AMPKα,no effect
same,LC3 and p62 staining,"MT330 cells [2]; EV MT330 cells, Baf 1 μM, 48 h",no effect
same,LC3+ and p62 puncta formation and co-localization,"MT330 cells [2]; STAT3-KO MT330 cells, bafilomycin 48 h",increased
same,ULK1 phosphorylation,ULK1,no effect
"CO[C@H]1C[C@@H]2CC[C@@H](C)[C@@](O)(O2)C(=O)C(=O)N2CCCC[C@H]2C(=O)O[C@H]([C@H](C)C[C@@H]2CC[C@@H](OCCO)[C@H](OC)C2)CC(=O)[C@H](C)/C=C(\C)[C@@H](O)[C@@H](OC)C(=O)[C@H](C)C[C@H](C)/C=C/C=C/C=C/1C [Everolimus, everolimus]",autophagy induction (LC3-II/Actin ratio),MT330 cells [1]; [6],no significant effect
same,autophagic flux,"MT330 cells [1]; cells lacking STAT3 and STAT3-KO cells expressing STAT3 phosphodeficient mutants, Everolimus 10 μM ± Baf 100 nM, 3 h",enhances autophagic flux
same,mTOR S2448 phosphorylation,mTORC1; [6],inhibited
same,pS6K phosphorylation (downstream target of mTORC1),mTORC1; [6],inhibited
CCn1c(-c2nonc2N)nc2c(C#CC(C)(C)O)ncc(OC[C@H]3CCCNC3)c21 [GSK690693],IC50,AMPK,50 nM
O=C1Nc2ccc(C(=O)c3ccco3)cc2/C1=C/c1cc(Cl)c(O)c(Cl)c1 [GW406108X],effect on upstream signaling kinases mTORC1 and AMPK,mTORC1 and AMPK,without affecting
same,effect on autophagy / autophagic flux,autophagy,blocks autophagic flux
Cl.O=C(NCCCNc1nc(Nc2cccc(CN3CCOCC3)c2)ncc1C1CC1)C1CCC1 [MRT67307 hydrochloride],effect on autophagy / autophagic flux,autophagy,blocks autophagy
CN1CCc2cc(Nc3ncc(C4CC4)c(NCCCNC(=O)C4CCC4)n3)ccc2C1 [MRT68921],apoptosis by caspase-3 cleavage,MT330 cells [3]; STAT3-KO and STAT3-mutant expressing lines,induced apoptosis
same,apoptosis by caspase-3 cleavage,MT330 cells [3]; control EV and WT-STAT3 reconstituted cells,not
same,LC3-II levels,"MT330 cells [1]; STAT3-KO cells and Y705F or S727A mutant cells, MRT68921 20 μM, 5 h",significantly increased
same,autophagy flux,"MT330 cells [1]; cells lacking functional STAT3, MRT68921 20 μM ± Baf 100 nM, 5 h",blocks autophagy flux
same,apoptotic cell death (DNA fragmentation) by ELISA,MT330 cells [4],significantly increased apoptosis
same,mTOR S2448 phosphorylation,"mTORC1; MT330 cells, MRT68921 20 μM, 5 h",did not significantly block
same,effect on autophagy / autophagic flux,autophagy,blocks autophagy flux
COC(=O)c1cc2c(OC(C)C)cc(OC(C)C)cc2[nH]1 [XST-14],apoptosis in hepatocellular carcinoma (HCC) cells,[5],induces apoptosis
same,effect on autophagy / autophagic flux,autophagy,induces autophagy inhibition
